Reference: patent publication US7026317B2, “Pyrazolotriazines as CRF antagonists” (Bristol-Myers Squibb Pharma Company, priority 1999, dated 2006)

SMILES	melting point [°C]
CCc1nn2c(-c3ccc(Cl)cc3Cl)nc(C)nc2c1C(CC)CC [compound 1, 4-(2,4-dichlorophenyl)-8-(3-pentyl)-7-ethyl-2-methyl-pyrazolo[1,5-a]-1,3,5-triazine]	91 to 93
CCc1nn2c(-c3ccc(Cl)cc3Cl)nc(C)nc2c1N(CC)CC [compound 3, 4-(2,4-dichlorophenyl)-8-diethylamino-7-ethyl-2-methyl-pyrazolo[1,5-a]-1,3,5-triazine]	98 to 99
